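All cell lines were grown in 96-well plates and treated with compound for 48 hours. GI50 marks 50% less growth.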 Activity calls are given as the source filed them. Cut-off read from the data, not from the text of the source: active = GI50 up to about 1.1 µM and inactive = higher.
How the values were obtained:
Experiment in all cases: DTP human tumour cell line panel, 48 h
COLO 205 = system: COLO 205
SK-MEL-2 = system: SK-MEL-2
IGROV-1 = system: IGROV-1
T47D = system: T47D
OVCAR-8 = system: OVCAR-8
U-251 = system: U-251
A549 = system: A549
SN12C = system: SN12C
M14 = system: M14
MDA-N = system: MDA-N
NCI-H23 = system: NCI-H23
MDA-MB-231 = system: MDA-MB-231
SF-539 = system: SF-539
HCT-116 = system: HCT-116
HT-29 = system: HT-29
UACC-257 = system: UACC-257
SR = system: SR
A498 = system: A498
SNB-19 = system: SNB-19

## NCCCCC(N)C(=O)NCCNc1ccc(NCCNC(=O)C(N)CCCCN)c2c1C(=O)c1ccccc1C2=O (configuration not stated)
COLO 205
  GI50: > 59.8 µM (inactive)
SK-MEL-2
  GI50: > 100 µM (inactive)
IGROV-1
  GI50: > 100 µM (inactive)
T47D
  GI50: > 100 µM (inactive)
OVCAR-8
  GI50: 5.9 µM (inactive)
U-251
  GI50: 35 µM (inactive)
A549
  GI50: 63 µM (inactive)
SN12C
  GI50: 4.11 µM (inactive)
M14
  GI50: > 100 µM (inactive)
MDA-N
  GI50: > 100 µM (inactive)
NCI-H23
  GI50: > 65.8 µM (inactive)
MDA-MB-231
  GI50: 34 µM (inactive)
SF-539
  GI50: 7.62 µM (inactive)
HCT-116
  GI50: 17.3 µM (inactive)
HT-29
  GI50: 50.7 µM (inactive)
UACC-257
  GI50: > 100 µM (inactive)
SR
  GI50: 4.91 µM (inactive)
A498
  GI50: 46.5 µM (inactive)
SNB-19
  GI50: > 36.9 µM (inactive)

## COC(=O)c1c(O)ccc2c1c1c(n2CCc2ccc(OC)c(OC)c2)C(=O)c2ccccc2C1=O
COLO 205
  GI50: 3.57 µM (inactive)
SK-MEL-2
  GI50: 16.4 µM (inactive)
IGROV-1
  GI50: 14.6 µM (inactive)
T47D
  GI50: 12 µM (inactive)
OVCAR-8
  GI50: 10.5 µM (inactive)
U-251
  GI50: 18.4 µM (inactive)
A549
  GI50: 14.5 µM (inactive)
SN12C
  GI50: 21.9 µM (inactive)
M14
  GI50: 14.2 µM (inactive)
MDA-N
  GI50: 10.9 µM (inactive)
NCI-H23
  GI50: 15.6 µM (inactive)
MDA-MB-231
  GI50: 22.4 µM (inactive)
SF-539
  GI50: 14.4 µM (inactive)
HCT-116
  GI50: 12.7 µM (inactive)
HT-29
  GI50: 3.13 µM (inactive)
UACC-257
  GI50: 16.6 µM (inactive)
SR
  GI50: 14.8 µM (inactive)
A498
  GI50: 15.9 µM (inactive)
SNB-19
  GI50: 22.5 µM (inactive)

## COc1ccc(C2C(=O)c3c(OC)cc(OC)cc3OC2c2cccnc2)cc1 (configuration not stated)
COLO 205
  GI50: 70.3 µM (inactive)
SK-MEL-2
  GI50: > 100 µM (inactive)
IGROV-1
  GI50: > 100 µM (inactive)
T47D
  GI50: > 100 µM (inactive)
OVCAR-8
  GI50: > 100 µM (inactive)
A549
  GI50: > 100 µM (inactive)
SN12C
  GI50: > 100 µM (inactive)
M14
  GI50: > 100 µM (inactive)
MDA-N
  GI50: 46.7 µM (inactive)
NCI-H23
  GI50: > 100 µM (inactive)
MDA-MB-231
  GI50: > 100 µM (inactive)
SF-539
  GI50: > 100 µM (inactive)
HCT-116
  GI50: > 100 µM (inactive)
HT-29
  GI50: 71.3 µM (inactive)
UACC-257
  GI50: > 100 µM (inactive)
SR
  GI50: 37.6 µM (inactive)
A498
  GI50: > 100 µM (inactive)
SNB-19
  GI50: > 100 µM (inactive)

## Cc1c2cccc-2c(OCCO)cc2c3ccccc3n(C)c12
COLO 205
  GI50: 1.69 µM (inactive)
SK-MEL-2
  GI50: 3.15 µM (inactive)
IGROV-1
  GI50: 1.49 µM (inactive)
T47D
  GI50: 3.1 µM (inactive)
OVCAR-8
  GI50: 2.9 µM (inactive)
U-251
  GI50: 1.87 µM (inactive)
A549
  GI50: 3.76 µM (inactive)
SN12C
  GI50: 3.13 µM (inactive)
M14
  GI50: 3.44 µM (inactive)
MDA-N
  GI50: 3.65 µM (inactive)
NCI-H23
  GI50: 3.4 µM (inactive)
MDA-MB-231
  GI50: 2.75 µM (inactive)
SF-539
  GI50: 2.54 µM (inactive)
HCT-116
  GI50: 3.16 µM (inactive)
HT-29
  GI50: 4.24 µM (inactive)
UACC-257
  GI50: 4.36 µM (inactive)
SR
  GI50: 2.34 µM (inactive)
A498
  GI50: 7.59 µM (inactive)
SNB-19
  GI50: 5.09 µM (inactive)

## O=C1/C(=C\c2ccc(Cl)cc2Cl)Sc2scc(-c3cccc([N+](=O)[O-])c3)[n+]21
COLO 205
  GI50: 0.59 µM (active)
SK-MEL-2
  GI50: 14.2 µM (inactive)
IGROV-1
  GI50: 6.31 µM (inactive)
T47D
  GI50: 12.2 µM (inactive)
OVCAR-8
  GI50: 8.15 µM (inactive)
U-251
  GI50: 13.9 µM (inactive)
A549
  GI50: 18.1 µM (inactive)
SN12C
  GI50: 5.33 µM (inactive)
M14
  GI50: 6.04 µM (inactive)
MDA-N
  GI50: 4.28 µM (inactive)
NCI-H23
  GI50: 12.6 µM (inactive)
MDA-MB-231
  GI50: 9.14 µM (inactive)
SF-539
  GI50: 1.81 µM (inactive)
HCT-116
  GI50: 5.2 µM (inactive)
HT-29
  GI50: 3.28 µM (inactive)
UACC-257
  GI50: 5.79 µM (inactive)
SR
  GI50: 2.58 µM (inactive)
A498
  GI50: 49 µM (inactive)
SNB-19
  GI50: 12.8 µM (inactive)

## COC(=O)c1c(O)ccc2c1c1cc3ccccc3c(O)c1n2CCc1ccc(OC)c(OC)c1
COLO 205
  GI50: 15.5 µM (inactive)
SK-MEL-2
  GI50: 58.2 µM (inactive)
IGROV-1
  GI50: 42.2 µM (inactive)
T47D
  GI50: 42.9 µM (inactive)
OVCAR-8
  GI50: 63.4 µM (inactive)
U-251
  GI50: > 100 µM (inactive)
A549
  GI50: 43.2 µM (inactive)
SN12C
  GI50: > 100 µM (inactive)
M14
  GI50: 86.7 µM (inactive)
MDA-N
  GI50: 57.7 µM (inactive)
NCI-H23
  GI50: 93.1 µM (inactive)
MDA-MB-231
  GI50: > 100 µM (inactive)
SF-539
  GI50: 98.9 µM (inactive)
HCT-116
  GI50: 97.1 µM (inactive)
HT-29
  GI50: 1.79 µM (inactive)
UACC-257
  GI50: > 100 µM (inactive)
SR
  GI50: 38.4 µM (inactive)
A498
  GI50: > 100 µM (inactive)
SNB-19
  GI50: > 100 µM (inactive)

## CN(CCCN(C)Cc1ccc(Cl)c(Cl)c1)CCN1CCCC1
COLO 205
  GI50: 9.35 µM (inactive)
SK-MEL-2
  GI50: 11 µM (inactive)
IGROV-1
  GI50: 27.7 µM (inactive)
T47D
  GI50: 29.9 µM (inactive)
OVCAR-8
  GI50: 29.5 µM (inactive)
U-251
  GI50: 16.8 µM (inactive)
A549
  GI50: 19.1 µM (inactive)
SN12C
  GI50: 37.8 µM (inactive)
M14
  GI50: 5.73 µM (inactive)
MDA-N
  GI50: 4.32 µM (inactive)
NCI-H23
  GI50: 26.5 µM (inactive)
MDA-MB-231
  GI50: 13.1 µM (inactive)
SF-539
  GI50: 16.7 µM (inactive)
HCT-116
  GI50: 12 µM (inactive)
HT-29
  GI50: 4.13 µM (inactive)
UACC-257
  GI50: 2.62 µM (inactive)
SR
  GI50: 8.45 µM (inactive)
A498
  GI50: 13.9 µM (inactive)
SNB-19
  GI50: 22.5 µM (inactive)
